Laboratory results reported in US12679840B2, “Process for the preparation of (9S)-N-[3-(6-methylpyrimidin-4-yl)-3-azabicyclo[3.2.1]octan-8-yl]-9-(2,3,4-trifluorophenyl)-6,7,8,9-tetrahydro-5H-[1,2,4]triazolo[1,5-a]azepin-2-amine and its solid form” (Hoffmann-La Roche Inc., priority 2020, dated 2026).
Converted amounts (≈) assume the structure as drawn. “And” between values parts separate entries of the source, which are not always exact repeats. Identical values can stand only once.

Assay: Solubility study of Form A in buffers, water and biorelevant media (suspension shaken 24 hours at 25° C., filtrate by UPLC)
Format: physicochemical
Details: for solubility at 24 h: thermodynamic from solid
Protocol: • pH 1.00 buffer • pH 3.00 buffer • pH 5.00 buffer • pH 7.00 buffer • pH 9.00 buffer • Water • SGF without Triton • FaSSIF • FeSSIF b. Testing Procedure
Weigh about 5 mg of compound (I) into glass vial and add 0.5 ml testing medium listed above to form suspension. Shake these suspensions at 1200 rpm for about 24 hours under 25° C.
At the end of 24 hours, pull out all the vials and filter the suspensions by 0.22 μm PVDF filters. Check the pH value and concentration of filtrate by pH meter and UPLC respectively.
The result indicates the solubility is pH dependent.

Cc1cc(N2CC3CCC(C2)C3Nc2nc3n(n2)CCCC[C@H]3c2ccc(F)c(F)c2F)ncn1 (stereo partly drawn) [Form A, (9S)-N-[3-(6-methylpyrimidin-4-yl)-3-azabicyclo[3.2.1]octan-8-yl]-9-(2,3,4-trifluorophenyl)-6,7,8,9-tetrahydro-5H-[1,2,4]triazolo[1,5-a]azepin-2-amine]
solubility at 24 h (FaSSIF, 25 °C, about 24 hours, individual replicate): 34 µg/mL (≈ 70.3 µM) | solubility at 24 h (FaSSIF, 25 °C, about 24 hours, mean ± spread of three replicates): 33 µg/mL (≈ 68.2 µM) | Solubility (FaSSIF, about 24 hours, individual replicate): 33 µg/mL (≈ 68.2 µM) | solubility at 24 h (FeSSIF, 25 °C, about 24 hours, individual replicate): 614 µg/mL (≈ 1270 µM) | solubility at 24 h (FeSSIF, 25 °C, about 24 hours, mean ± spread of three replicates): 618 ± 7 µg/mL (≈ 1280 µM) | Solubility (FeSSIF, about 24 hours, individual replicate): 611 µg/mL and 628 µg/mL | solubility at 24 h (SGF without Triton-X100, 25 °C, simulated gastric fluid, SGF without Triton-X100, about 24 hours, individual replicate): > 10000 µg/mL | solubility at 24 h (SGF without Triton-X100, 25 °C, simulated gastric fluid, SGF without Triton-X100, about 24 hours, mean of three replicates): > 10000 µg/mL | Solubility (Water, about 24 hours, individual replicate): 6 µg/mL (≈ 12.4 µM) | solubility at 24 h (pH 1.0 buffer, 25 °C, pH 1, aqueous buffer, about 24 hours, individual replicate): > 10000 µg/mL | solubility at 24 h (pH 1.0 buffer, 25 °C, pH 1, aqueous buffer, about 24 hours, mean of three replicates): > 10000 µg/mL | solubility at 24 h (pH 3.0 buffer, 25 °C, pH 3, aqueous buffer, about 24 hours, individual replicate): 5480 µg/mL (≈ 11300 µM) | solubility at 24 h (pH 3.0 buffer, 25 °C, pH 3, aqueous buffer, about 24 hours, mean ± spread of three replicates): 5347 ± 47 µg/mL (≈ 11100 µM) | Solubility (pH 3.0 buffer, about 24 hours, individual replicate): 5366 µg/mL and 5468 µg/mL | solubility at 24 h (pH 5.0 buffer, 25 °C, pH 5, aqueous buffer, about 24 hours, individual replicate): 91 µg/mL (≈ 188 µM) | solubility at 24 h (pH 5.0 buffer, 25 °C, pH 5, aqueous buffer, about 24 hours, mean ± spread of three replicates): 101 ± 9 µg/mL (≈ 209 µM) | Solubility (pH 5.0 buffer, about 24 hours, individual replicate): 97 µg/mL and 114 µg/mL | solubility at 24 h (pH 7.0 buffer, 25 °C, pH 7, aqueous buffer, about 24 hours, individual replicate): 7 µg/mL (≈ 14.5 µM) | solubility at 24 h (pH 7.0 buffer, 25 °C, pH 7, aqueous buffer, about 24 hours, mean ± spread of three replicates): 6 µg/mL (≈ 12.4 µM) | Solubility (pH 7.0 buffer, about 24 hours, individual replicate): 6 µg/mL (≈ 12.4 µM) | solubility at 24 h (pH 9.0 buffer, 25 °C, pH 9, aqueous buffer, about 24 hours, individual replicate): 6 µg/mL (≈ 12.4 µM) | solubility at 24 h (pH 9.0 buffer, 25 °C, pH 9, aqueous buffer, about 24 hours, mean ± spread of three replicates): 6 µg/mL (≈ 12.4 µM) | solubility at 24 h (water, 25 °C, about 24 hours, individual replicate): 7 µg/mL (≈ 14.5 µM) | solubility at 24 h (water, 25 °C, about 24 hours, mean ± spread of three replicates): 6 µg/mL (≈ 12.4 µM)
